In patent US20160120979A1, “METHOD OF APPLYING A COMPOSITION AND PHARMACEUTICAL COMPOSITION WITH A REGIMEN OF ADMINISTERING IT” (priority 2013, published 2016):

How the values were obtained:
[1] = tested on: Staphylococcus aureus MU500; assay: Experiment 12: replication on antibiotic agar after pulsed 400 nm irradiation; assay type: cell-based; conditions: 24 hours incubation; for E: Staphylococcus aureus MU500 (no irradiation), replication: antibiotic 10 mg/l in MH agar; for F: Staphylococcus aureus MU500 (irradiation), replication: antibiotic 10 mg/l, 400 nm LED pulses 0.02 ms, 1 kHz, 10 minutes
Method: (§1) 15′000′000 multi-resistant bacteriae (0.050 ml of a McFarland of 1) were put on 40 mm diameter petri dishes. The petri dishes comprised MH agar with or without antibiotic.
The LED power during 0.02 ms was measured to be 0.63 W on a Thorlabs power sensor with a surface area of 2.2×2.2 mm representing a power of 13 mW/cm^2.

Pseudomonas aeruginosa = assay: as above; assay type: cell-based; conditions: 24 hours incubation; for A: Pseudomonas aeruginosa (no irradiation), replication: antibiotic 10 mg/l in MH agar; for B: Pseudomonas aeruginosa (irradiation), replication: antibiotic 10 mg/l, 400 nm LED pulses 0.02 ms, 1 kHz, 10 minutes
Method: as §1
(§2) […]. The LED power during 0.02 ms was measured to be 0.63 W on a Thorlabs power sensor with a surface area of 2.2×2.2 mm representing a power of 13 mW/cm^2.

Acinetobacter = assay: as above; assay type: cell-based; conditions: 24 hours incubation; for C: Acinetobacter (no irradiation), replication: antibiotic 10 mg/l in MH agar; for D Acinetobacter (irradiation), replication: antibiotic 10 mg/l, 400 nm LED pulses 0.02 ms, 1 kHz, 10 minutes
Method: as §1, §2

[2] = tested on: multi-drug resistant MU 50 bacterial cells; assay: Experiment 1: killing of MU50 by antibiotic with/without riboflavin and UVA 365 nm (CFU); assay type: cell-based, Staphylococcus aureus
Method: The first experiment compares the effect of two antibiotics incubated with multi-drug resistant MU 50 bacterial cells accompanied by exposure to UVA light at 365 nm. […] Furthermore, the antibiotics were administered in the presence and absence of riboflavin, to test the free radical effect of riboflavin.
After addition of the antibiotic and optionally riboflavin to the bacterial samples they were incubated for 1 or for 30 minutes in Experiment 1A and for 30 minutes in Experiment 1B prior to the UV-A exposure at 365 nm with 9 mW/cm^2 for 10 minutes.
In Experiment 1B the added antibiotic was tobramycin at a concentration of 135 μg/ml.

[3] = tobramycin 135 μg/ml, incubation 30 min, no riboflavin, with UVA 365 nm 9 mW/cm^2 10 min
[4] = tobramycin 135 μg/ml, incubation 30 min, with riboflavin, with UVA 365 nm 9 mW/cm^2 10 min
[5] = ofloxacin 240 μg/ml, incubation 1 min, no riboflavin, no UVA
[6] = ofloxacin 240 μg/ml, incubation 1 min, no riboflavin, with UVA 365 nm 9 mW/cm^2 10 min
[7] = ofloxacin 240 μg/ml, incubation 1 min, with riboflavin, no UVA
[8] = ofloxacin 240 μg/ml, incubation 1 min, with riboflavin, with UVA 365 nm 9 mW/cm^2 10 min
[9] = ofloxacin 240 μg/ml, incubation 30 min, no riboflavin, no UVA
[10] = ofloxacin 240 μg/ml, incubation 30 min, no riboflavin, with UVA 365 nm 9 mW/cm^2 10 min
[11] = ofloxacin 240 μg/ml, incubation 30 min, with riboflavin, no UVA
[12] = ofloxacin 240 μg/ml, incubation 30 min, with riboflavin, with UVA 365 nm 9 mW/cm^2 10 min

CN(C)c1ccc(O)c2c1C[C@H]1C[C@H]3[C@H](N(C)C)C(O)=C(C(N)=O)C(=O)[C@@]3(O)C(O)=C1C2=O [Minocycline]
E: Staphylococcus aureus MU500 (no irradiation), replication [1]: R (Bacteria can replicate after the treatment) | F: Staphylococcus aureus MU500 (irradiation), replication [1]: NR (No replication) | A: Pseudomonas aeruginosa (no irradiation), replication (Pseudomonas aeruginosa): R (Bacteria can replicate after the treatment) | B: Pseudomonas aeruginosa (irradiation), replication (Pseudomonas aeruginosa): NR (No replication) | C: Acinetobacter (no irradiation), replication (Acinetobacter): R (Bacteria can replicate after the treatment) | D Acinetobacter (irradiation), replication (Acinetobacter): NR (No replication)

CN(C)[C@@H]1C(O)=C(C(N)=O)C(=O)[C@@]2(O)C(O)=C3C(=O)c4c(O)cccc4[C@@](C)(O)[C@H]3[C@H](O)[C@@H]12 [Oxytetracycline]
E: Staphylococcus aureus MU500 (no irradiation), replication [1]: R (Bacteria can replicate after the treatment) | F: Staphylococcus aureus MU500 (irradiation), replication [1]: NR (No replication) | A: Pseudomonas aeruginosa (no irradiation), replication (Pseudomonas aeruginosa): R (Bacteria can replicate after the treatment) | B: Pseudomonas aeruginosa (irradiation), replication (Pseudomonas aeruginosa): NR (No replication) | C: Acinetobacter (no irradiation), replication (Acinetobacter): R (Bacteria can replicate after the treatment) | D Acinetobacter (irradiation), replication (Acinetobacter): NR (No replication)

C[C@H]1COc2c(N3CCN(C)CC3)c(F)cc3c(=O)c(C(=O)O)cn1c23 [Levofloxacin]
E: Staphylococcus aureus MU500 (no irradiation), replication [1]: R (Bacteria can replicate after the treatment) | F: Staphylococcus aureus MU500 (irradiation), replication [1]: PR (Bacteria can replicate partially) | A: Pseudomonas aeruginosa (no irradiation), replication (Pseudomonas aeruginosa): R (Bacteria can replicate after the treatment) | B: Pseudomonas aeruginosa (irradiation), replication (Pseudomonas aeruginosa): NR (No replication) | C: Acinetobacter (no irradiation), replication (Acinetobacter): R (Bacteria can replicate after the treatment) | D Acinetobacter (irradiation), replication (Acinetobacter): NR (No replication)

CN(C)[C@@H]1C(O)=C(C(=O)NCNCCCC[C@H](N)C(=O)O)C(=O)[C@@]2(O)C(O)=C3C(=O)c4c(O)cccc4[C@@](C)(O)[C@H]3C[C@@H]12 [Lymecycline]
E: Staphylococcus aureus MU500 (no irradiation), replication [1]: R (Bacteria can replicate after the treatment) | F: Staphylococcus aureus MU500 (irradiation), replication [1]: NR (No replication) | A: Pseudomonas aeruginosa (no irradiation), replication (Pseudomonas aeruginosa): R (Bacteria can replicate after the treatment) | B: Pseudomonas aeruginosa (irradiation), replication (Pseudomonas aeruginosa): NR (No replication) | C: Acinetobacter (no irradiation), replication (Acinetobacter): R (Bacteria can replicate after the treatment) | D Acinetobacter (irradiation), replication (Acinetobacter): NR (No replication)

NC[C@H]1O[C@H](O[C@H]2[C@H](O)[C@@H](O[C@H]3O[C@H](CO)[C@@H](O)[C@H](N)[C@H]3O)[C@H](N)C[C@@H]2N)[C@H](N)C[C@@H]1O [Tobramycin]
E: Staphylococcus aureus MU500 (no irradiation), replication [1]: R (Bacteria can replicate after the treatment) | F: Staphylococcus aureus MU500 (irradiation), replication [1]: R (Bacteria can replicate after the treatment) | CFU first run [2, 3]: 416 CFU | CFU second run [2, 3]: 481 CFU | Killed first run [2, 3]: 36% | Killed second run [2, 3]: 25% | CFU first run [2, 4]: 144 CFU | CFU second run [2, 4]: 159 CFU | Killed first run [2, 4]: 78% | Killed second run [2, 4]: 75% | A: Pseudomonas aeruginosa (no irradiation), replication (Pseudomonas aeruginosa): R (Bacteria can replicate after the treatment) | B: Pseudomonas aeruginosa (irradiation), replication (Pseudomonas aeruginosa): NR (No replication) | C: Acinetobacter (no irradiation), replication (Acinetobacter): R (Bacteria can replicate after the treatment) | D Acinetobacter (irradiation), replication (Acinetobacter): R (Bacteria can replicate after the treatment)

COc1c(N2CCNC(C)C2)c(F)cc2c(=O)c(C(=O)O)cn(C3CC3)c12 (stereo not shown) [Gatifloxacin]
E: Staphylococcus aureus MU500 (no irradiation), replication [1]: R (Bacteria can replicate after the treatment) | F: Staphylococcus aureus MU500 (irradiation), replication [1]: PR (Bacteria can replicate partially) | A: Pseudomonas aeruginosa (no irradiation), replication (Pseudomonas aeruginosa): R (Bacteria can replicate after the treatment) | B: Pseudomonas aeruginosa (irradiation), replication (Pseudomonas aeruginosa): NR (No replication) | C: Acinetobacter (no irradiation), replication (Acinetobacter): R (Bacteria can replicate after the treatment) | D Acinetobacter (irradiation), replication (Acinetobacter): NR (No replication)

CN(C)c1cc(NC(=O)CNC(C)(C)C)c(O)c2c1C[C@H]1C[C@H]3[C@H](N(C)C)C(O)=C(C(N)=O)C(=O)[C@@]3(O)C(O)=C1C2=O [Tigecycline]
E: Staphylococcus aureus MU500 (no irradiation), replication [1]: R (Bacteria can replicate after the treatment) | F: Staphylococcus aureus MU500 (irradiation), replication [1]: NR (No replication) | A: Pseudomonas aeruginosa (no irradiation), replication (Pseudomonas aeruginosa): R (Bacteria can replicate after the treatment) | B: Pseudomonas aeruginosa (irradiation), replication (Pseudomonas aeruginosa): NR (No replication) | C: Acinetobacter (no irradiation), replication (Acinetobacter): R (Bacteria can replicate after the treatment) | D Acinetobacter (irradiation), replication (Acinetobacter): NR (No replication)

CC1COc2c(N3CCN(C)CC3)c(F)cc3c(=O)c(C(=O)O)cn1c23 (stereo not shown) [Ofloxacin]
E: Staphylococcus aureus MU500 (no irradiation), replication [1]: R (Bacteria can replicate after the treatment) | F: Staphylococcus aureus MU500 (irradiation), replication [1]: PR (Bacteria can replicate partially) | CFU first run [2, 5]: 505 CFU | CFU second run [2, 5]: 351 CFU | Killed first run [2, 5]: 12% | Killed second run [2, 5]: 14% | CFU first run [2, 6]: 9 CFU | CFU second run [2, 6]: 9 CFU | Killed first run [2, 6]: 98% | Killed second run [2, 6]: 98% | CFU first run [2, 7]: 574 CFU | CFU second run [2, 7]: 391 CFU | Killed first run [2, 7]: 0% | Killed second run [2, 7]: 4% | CFU first run [2, 8]: 144 CFU | CFU second run [2, 8]: 98 CFU | Killed first run [2, 8]: 75% | Killed second run [2, 8]: 76% | CFU first run [2, 9]: 490 CFU | CFU second run [2, 9]: 350 CFU | Killed first run [2, 9]: 15% | Killed second run [2, 9]: 14% | CFU first run [2, 10]: 7 CFU | CFU second run [2, 10]: 15 CFU | Killed first run [2, 10]: 99% | Killed second run [2, 10]: 96% | CFU first run [2, 11]: 570 CFU | CFU second run [2, 11]: 363 CFU | Killed first run [2, 11]: 1% | Killed second run [2, 11]: 11% | CFU first run [2, 12]: 171 CFU | CFU second run [2, 12]: 193 CFU | Killed first run [2, 12]: 70% | Killed second run [2, 12]: 53% | A: Pseudomonas aeruginosa (no irradiation), replication (Pseudomonas aeruginosa): R (Bacteria can replicate after the treatment) | B: Pseudomonas aeruginosa (irradiation), replication (Pseudomonas aeruginosa): NR (No replication) | C: Acinetobacter (no irradiation), replication (Acinetobacter): R (Bacteria can replicate after the treatment) | D Acinetobacter (irradiation), replication (Acinetobacter): NR (No replication)
